Measurements as given in US20230013364A1, “COMBINATION THERAPIES COMPRISING ANTIBODY MOLECULES TO PD-1” (Novartis AG, priority 2015, published 2023).
Where “and” joins values, the source holds several entries; their conditions need not be identical. Identical values can stand only once. Entries after “also recorded” stand apart in the source; their conditions may differ. Like-named read-outs stand apart in the source and are kept apart here.

What was measured:
[1] = test system: PD-L1 (CD274) mRNA in UKE-1 tumors; assay: PD-L1 mRNA in UKE-1 tumor xenograft model; assay type: in vivo, human; conditions: tumor xenograft model bearing UKE-1 (MPN line with JAK2V617F mutation); FIG. 20
Protocol: (§1) TaqMan RT PCR assays were developed to detect changes of expression levels of PD-L1 (CD274) in cell lines and xenograft tumors. mRNA was isolated from frozen cell pellets or tumor fragments using the Qiagen RNeasy Mini kit. Isolated RNA was frozen at −80° C. RNA quality was checked and RNA was quantified using a 2100 Agilent Bioanalyzer following the protocol for the Agilent RNA 6000 Nano Kit. cDNA was prepared using a High Capacity RNA—to cDNA Kit (Applied Biosystems).
(§2) Real-time PCR reactions were carried out in 20 μl total volume, including 10 μl of Universal PCR master mix (Applied Biosystems), 1 μl of human PD-L1 (CD274) probe/primer set (Applied Biosystems), and 8 μl of cDNA. Each sample was run in triplicate. The amount of cDNA produced from 25-50 ng of RNA in the reverse transcription reaction was used in each PCR reaction. Due to difference in mRNA levels between PD-L1 and GAPDH, the two real-time PCR reactions were done in separate tubes using same amount of cDNA. The real-time PCR reaction was run on the C1000 Thermal Cycle (BioRad) with the cycle program as follows: a 10 minute incubation at 95° C. followed by 40 cycles of 95° C. for 15 seconds and 60° C. for 1 minute. After the reaction was complete, the PD-L1 average Ct was normalized relative to each Ct value from the GAPDH reference reaction. Each normalized logarithmic value was then converted into a linear value.

[2] = test system: PD-L1 (CD274) surface expression in EBC-1 cells; assay: Flow cytometry of PD-L1 surface expression in EBC-1 cells in vitro; assay type: cell-based, human; conditions: EBC-1 cells (NSCLC with cMET amplification); 10, 100, 1000 nM; 24, 48, 72 hours; vs DMSO; FIG. 15
Protocol: PD-L1 (CD274) expression was analyzed in cancer cell lines treated with Compound A17. Cells were obtained from ATCC and cultured in vitro following ATCC directions. The cell lines used were previously characterized by the Cancer Cell Line Encyclopedia Project (http://www.broadinstitute.org/ccle/home).
Cells plated in six-well culture plates were treated with the Compound A17 at different concentrations (10 nM, 100 nM, and 1000 nM) for 24, 48 and 72 hours. Equal amount of vehicle (DMSO) was used as a control. Cells were washed with PBS and then harvested using a cell scraper.
For each reaction, 0.5-1×10^6 cells were stained with 20 μL of anti-human monoclonal PD-L1— PE antibody, clone M1H1 (BD) for 30-60 minutes at 4° C. Cells were washed twice and data was acquired using a Canto II with FACSDiva software (BD Bioscience). Data analysis was performed using FlowJo software (Tree Star). Mean fluorescence intensity (MFI) was determined by gating on single cells. Unstained cells were used as a gating control.

[3] = test system: PD-L1 (CD274) mRNA in Hs.746.T tumor; assay: PD-L1 mRNA in Hs.746.T tumor xenograft; assay type: in vivo, human; conditions: Hs.746.T tumor (gastric cancer, cMET amplification & mutation) xenograft; FIG. 16
Protocol: as §1, §2

[4] = test system: PD-L1 (CD274) mRNA in H3122 cells; assay: TaqMan RT PCR of PD-L1 mRNA in H3122 cells in vitro; assay type: cell-based, human; conditions: H3122 (NSCLC with ALK translocation) in vitro; FIG. 17
Protocol: as §1, §2

[5] = test system: PD-L1 (CD274) mRNA in HEYA8 tumors; assay: PD-L1 mRNA in HEYA8 tumor xenograft model; assay type: in vivo, human; conditions: tumor xenograft model bearing HEYA8 (KRAF mutant ovarian cancer); FIG. 19
Protocol: as §1, §2

[6] = test system: PD-L1 (CD274) mRNA in LOXIMV1 tumors; assay: PD-L1 mRNA in LOXIMV1 tumor xenograft model; assay type: in vivo, human; conditions: tumor xenograft model bearing LOXIMV1 (BRAF mutant melanoma); FIG. 18
Protocol: as §1, §2

[7] = test system: interferon gamma (IFN-γ) expression; assay type: cell-based
CD8+ T cells = assay: Proliferation of CD8+ T cells activated with CMV peptides; assay type: cell-based; conditions: percentages of CD8+ cells that passed through at least n cell divisions (n=2, 4, 6)

N#CC[C@H](C1CCCC1)n1cc(-c2ncnc3[nH]ccc23)cn1 [Compound A18, Ruxolitinib Phosphate]
PD-L1 mRNA [1]: Significant inhibition; also recorded: Downregulation

CNC(=O)c1ccc(-c2cnc3ncc(Cc4ccc5ncccc5c4)n3n2)cc1F [Compound A17, 2-fluoro-N-methyl-4-(7-(quinolin-6-ylmethyl)imidazo[1,2-b][1,2,4]triazin-2-yl)benzamide]
surface expression of PD-L1 (flow cytometry) [2]: Significant inhibition; also recorded: significant downregulation | PD-L1 expression (mRNA) [3]: Inhibition

Cc1cc(Nc2ncc(Cl)c(Nc3ccccc3S(=O)(=O)C(C)C)n2)c(OC(C)C)cc1C1CCNCC1 [Compound A23, ceritinib]
PD-L1 mRNA [4]: Significant inhibition

Cn1cnc2c(F)c(Nc3ccc(Br)cc3F)c(C(=O)NOCCO)cc21 [Compound A34, Binimetinib]
PD-L1 mRNA [5]: Significant inhibition; also recorded: Downregulation

COC(=O)N[C@@H](C)CNc1nccc(-c2cn(C(C)C)nc2-c2cc(Cl)cc(NS(C)(=O)=O)c2F)n1 [Compound A29, Encorafenib]
PD-L1 mRNA [6]: Significant inhibition; also recorded: Downregulation

B1: BAP049: murine anti-PD-1 monoclonal antibody (antibody, V domains shown)
VH: QVQLQQSGSELVRPGASVKLSCKASGYTFTTYWMHWVRQRPGQGLEWIGNIYPGTGGSNFDEKFKNRTSLTVDTSSTTAYMHLASLTSEDSAVYYCTRWTTGTGAYWGQGTLVTVSA
VL: DIVMTQSPSSLTVTAGEKVTMSCKSSQSLLDSGNQKNFLTWYQQKPGQPPKLLIFWASTRESGVPDRFTGSGSVTDFTLTISSVQAEDLAVYYCQNDYSYPCTFGGGTKLEIK
fold increase in IFN-γ expression [7]: 2.3±1.1 fold and 2.8±0.8 fold | fold increase in IFN-γ expression ([7]; cells stimulated with Staphylococcal enterotoxin B (SEB) (3 pg/mL)): 2.5±2.0 fold | proliferation of CD8+ T cells activated with CMV peptides (CD8+ T cells): increase proliferation
